# Patent US12075778B2, “Inhibitor for resisting muskmelon powdery mildew as well as preparation method and application thereof” (Northeast Agricultural University, priority 2022, dated 2024)
# What was measured:
# muskmelon powdery mildew = assay: Resistance to powdery mildew of muskmelon plants sprayed with allantoin aqueous solution and inoculated with spore suspension (greenhouse); format: in vivo, Podosphaera xanthii; conditions: for plant morbidity: inoculated 24 h after first spraying
# Method: Preparation and inoculation of pathogen spore suspension of muskmelon powdery mildew:
# Muskmelon leaves with severe powdery mildew were randomly selected from the field, and conidia were transferred to a beaker containing sterile water by a brush and uniformly stirred to obtain the spore suspension of powdery mildew. Spore concentration was measured under an optical microscope by using a blood counting chamber, and the concentration of the spore suspension was adjusted to be 1×10^6spores/mL for later use, which was used for inoculation tests. It was identified that this bacterial suspension was the bacterial suspension of muskmelon powdery mildew.
# Muskmelon seedlings were planted in a greenhouse in June. When the muskmelon seedlings grown to the spreading stage, they were divided into a blank group, a pathogen inoculation group, a negative control group and an experimental group. […] The negative control group was sprayed with the sterile water at 5:00 pm to 6:00 pm, spraying was carried out once every three days, and the spraying amount of each time was the same as that of the aqueous solution containing allantoin in the experimental group. 24 hours after the first spraying of the allantoin water solution in the experimental group, the negative control group, the pathogen inoculation group and the experimental group were inoculated with the spore suspension of powdery mildew obtained above after the solution on the leaves was evaporated. After the pathogen inoculation group was infected with powdery mildew, the resistance to powdery mildew of the experimental group and the negative control group was observed (as shown in FIG. 1A-B), and the disease index, morbidity and control efficiency of the experimental group were calculated.
# Leaf morphology was graded according to the response of the muskmelon leaves infected with powdery mildew. Grade 0: no infection; grade 1: no obvious infection; grade 2: mild infection; grade 3: moderate infection; grade 4: severe infection; and grade 5: whole-leaf infection. Disease index=sum of disease grade numbers of all leaves of an individual plant/number of leaves of the individual plant×the highest disease grade of the leaves of the individual plant Morbidity=number of infected individual plants/total number of investigated individual plants×100% Control efficiency=number of uninfected individual plants/total number of investigated individual plants×100%
# Muskmelon seedlings were planted in a greenhouse in June. When the muskmelon seedlings grown to the three-leaves and one-bud stage, they were divided into a blank group, a pathogen inoculation group, a negative control group and an experimental group. The muskmelon leaves in the experimental group were sprayed with an aqueous solution containing allantoin with the concentration of 1050 mg/L at 5:00 pm to 6:00 pm, spraying was carried out once every three days, and a medicament was uniformly covered on the leaves for each time of spraying. The negative control group was sprayed with the sterile water at 5:00 pm to 6:00 pm, spraying was carried out once every three days, and the spraying amount of each time was the same as that of the aqueous solution containing allantoin in the experimental group. 24 hours after the first spraying of the allantoin water solution in the experimental group, the negative control group, the pathogen inoculation group and the experimental group were inoculated with the spore suspension of powdery mildew obtained above after the solution on the leaves was evaporated. After the pathogen inoculation group was infected with powdery mildew, the resistance to powdery mildew of the experimental group was observed (as shown in FIG. 2A-B), and the disease index, morbidity and control efficiency of the experimental group were calculated.
# [1] = tested on: pathogen of muskmelon gummy stem blight; assay: Plate experiment of inhibitory effect on pathogen of muskmelon gummy stem blight (PDA medium); format: cell-based; conditions: allantoin aqueous solution 700 mg/L and 1050 mg/L smeared on PDA plates, 7 days, 28° C.
# Method: Based on the purpose of study, the inventor designed a plate experiment. Considering that powdery mildew is a living parasitic fungi and can only grow and reproduce on living plants, a PDA medium cannot be used for culturing, so that pathogen of muskmelon gummy stem blight is used for experiment. The specific experiment method is as follows: a PDA medium was prepared and poured into plates; equal amounts of an allantoin aqueous solution with the concentration of 700 mg/L, an allantoin aqueous solution with the concentration of 1050 mg/L and sterile water were respectively smeared on three plates, and then a bacterial cake of the pathogen of muskmelon gummy stem blight was inoculated in the center of each plate; the plates were cultured for 7 days under 28° C., and the growth of the pathogen of muskmelon gummy stem blight in the three plates was observed.
# [2] = Example 3: 700 mg/L allantoin aqueous solution sprayed on leaves once every three days, spreading stage
# [3] = Example 4: 1050 mg/L allantoin aqueous solution sprayed on leaves once every three days, three-leaves and one-bud stage
smiles,measurement,setting,value
NC(=O)NC1NC(=O)NC1=O (stereo not shown) [allantoin],control efficiency,muskmelon powdery mildew; [2],100%
same,disease index,muskmelon powdery mildew; [2],0
same,plant morbidity,muskmelon powdery mildew; [2],0%
same,powdery mildew spots on the leaves,"muskmelon powdery mildew; Example 3: 700 mg/L allantoin aqueous solution, spreading stage (FIG. 1A)",no powdery mildew spot is generated on the leaves
same,plant morbidity,"muskmelon powdery mildew; Example 4: 1050 mg/L allantoin aqueous solution sprayed on leaves once every three days, three-leaves and one-bud (seedling) stage",0%
same,control efficiency,muskmelon powdery mildew; [3],100%
same,disease index,muskmelon powdery mildew; [3],0
same,powdery mildew spots on the leaves,"muskmelon powdery mildew; Example 4: 1050 mg/L allantoin aqueous solution, three-leaves and one-bud stage (FIG. 2)",no powdery mildew spot is generated on the leaves
same,control efficiency (summary statement),muskmelon powdery mildew; aqueous solution containing allantoin sprayed on leaves in the spreading stage or the three-leaves and one-bud stage,≤ 100%
same,growth of the pathogen of muskmelon gummy stem blight on plate,[1],does not inhibit the growth
